Laboratory results as given in US9035044B2, “L-proline and citric acid co-crystals of (2S, 3R, 4R, 5S,6R)-2-(3-((5-(4-fluorophenyl)thiopen-2-yl)methyl)4-methylphenyl)-6-(hydroxymethyl)tetrahydro-2H-pyran-3,4,5-triol” (Janssen Pharmaceutica NV, priority 2011, dated 2015).

Columns and labels:
Format in all cases: physicochemical
[1] = Dynamic vapor sorption/desorption (DVS); details: for hygroscopicity: 0% RH to 90% RH, 2 full cycles; for form conversion by pXRD after the DVS run: isolated at 0% RH
Procedure: DVS: Moisture sorption was characterized on a DVS-1 Instrument (Surface Measurement Systems, Allentown, Pa.). In each case, the sample was subject to a drying curve from ambient to 0% relative humidity (RH), followed by two cycles of sorption (from 0% RH to 90% RH) and desorption (from 90% RH to 0% RH) in 10% RH steps at 25° C. At each step the sample was allowed to equilibrate at a specific % RH and thus, stabilize in terms of weight gained or lost prior to the instrument moving to the next step within the method.
The crystalline L-proline co-crystal of the compound of formula (I-X) was further characterized using Dynamic Vapor Sorption (DVS), measuring from 0% RH to 90% RH (2 full cycles) at 25° C.
The crystalline citric acid co-crystal of the compound of formula (I-X) was further characterized using Dynamic Vapor Sorption (DVS), measuring from 0% RH to 90% RH (2 full cycles) at 25° C.

[2] = Chemical stability/degradation of stored samples by HPLC; details: 1 week
Procedure: (§1) Samples of the crystalline L-proline co-crystal of the compound of formula (I-X) being tested for physical stability, sampled at 1 day, 1 week, 2 weeks and 4 weeks, were further tested for chemical stability/degradation. Crystalline L-proline co-crystal of the compound of formula (I-X) (˜10 mg) was diluted with a 50:50 water:acetonitrile solution (10 mL), and then further diluted 10 fold for HPLC measurements.
as §1, with “citric acid” for “L-proline”

[3] = Physical stability on storage in serum crimp vials; details: up to 4 weeks; for physical stability: 5° C. sealed, 25° C./60% RH open, 40° C. sealed, 40° C./75% RH open, 60° C. sealed, 80° C. sealed
Procedure: (§2) The crystalline L-proline co-crystal of the compound of formula (I-X) was tested for physical stability by storing about 10 mg of the co-crystal in 10 mL serum crimp vials, under following conditions: (a) 5° C., sealed; (b) 25° C./60% RH, open; (c) 40° C., sealed; (d) 40° C./75% RH, open; (e) 60° C., sealed; and (f) 80° C., sealed; with stability data collected at 1 day, 1 week, 2 weeks and 4 weeks.
as §2, with “citric acid” for “L-proline”, “was similarly” for “was”, “in” for “in 10”

[4] = all six storage conditions, 1 day, 2 weeks and 4 weeks
[5] = 25° C./60% RH open and 60° C. sealed, 2 week and 4 week samples
[6] = 40° C./75% RH open and 80° C. sealed, 2 week and 4 week samples

hygroscopicity ([1]; 25° C.)	mass gain ([1]; between 40% RH and 90% RH, 25° C., lost on desorption with some hysteresis)	form conversion by pXRD after the DVS run [1]	weight gain ([1]; until % RH reached 40%, 25° C.)	chemical stability (HPLC) [2, 4]	degradation peaks (HPLC) [2, 4]	physical stability [3]	visible color changes ([3]; all six storage conditions)	increase in mass ([1]; 0%-80% RH, 25° C., lost again on desorption)	degradation peaks (HPLC) [2, 5]	peak purity (HPLC) [2, 5]	peak purity (HPLC) [2, 6]	chemical stability (HPLC) ([2]; stored at 5° C. sealed and 40° C. sealed, 1 day, 2 weeks and 4 weeks)	degradation on a peak basis ([3]; stored at 25° C./60% RH, 40° C./75% RH, 60° C. or 80° C.)	SMILES	degradation peaks (HPLC) [2, 6]
hygroscopic	12%	no irreversible form conversion	no weight gain was observed	chemically stable	No degradation peaks were observed	physically stable	no visible color changes							Cc1ccc([C@@H]2O[C@H](CO)[C@@H](O)[C@H](O)[C@H]2O)cc1Cc1ccc(-c2ccc(F)cc2)s1 [crystalline L-proline co-crystal of the compound of formula ] [(2S,3R,4R,5S,6R)-2-(3-((5-(4-fluorophenyl)thiophen-2-yl)methyl)-4-methylphenyl)-6-(hydroxymethyl)tetrahydro-2H-pyran-3,4,5-triol]	
non-hygroscopic		no form conversion				physically stable		0.5%	A small degradation peak was observed	> 99%	> 99%	chemically stable	< 0.3%	Cc1ccc([C@@H]2O[C@H](CO)[C@@H](O)[C@H](O)[C@H]2O)cc1Cc1ccc(-c2ccc(F)cc2)s1 [crystalline citric acid co-crystal of the compound of formul] [(2S,3R,4R,5S,6R)-2-(3-((5-(4-fluorophenyl)thiophen-2-yl)methyl)-4-methylphenyl)-6-(hydroxymethyl)tetrahydro-2H-pyran-3,4,5-triol]	A few small degradation peaks were also observed
